Active and inactive are the calls of the source.
Experiments:
[1] = molecular target: T1, Heat shock factor protein 1 (Mus musculus, UniProt P38532); test: HSF1 potentiators in luciferase reporter cells, confirmation, cell-based, NIH3T3, luminescence, dose retest (AID 435004); type: functional;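 note: stress induced by proteasome inhibitor MG132 added 30 min after compound; luciferase reporter driven by HSF1 response element in NIH3T3 cells; actives raise luminescence as potentiators of the MG132 stress response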
T1 sequence (P38532 whole entry): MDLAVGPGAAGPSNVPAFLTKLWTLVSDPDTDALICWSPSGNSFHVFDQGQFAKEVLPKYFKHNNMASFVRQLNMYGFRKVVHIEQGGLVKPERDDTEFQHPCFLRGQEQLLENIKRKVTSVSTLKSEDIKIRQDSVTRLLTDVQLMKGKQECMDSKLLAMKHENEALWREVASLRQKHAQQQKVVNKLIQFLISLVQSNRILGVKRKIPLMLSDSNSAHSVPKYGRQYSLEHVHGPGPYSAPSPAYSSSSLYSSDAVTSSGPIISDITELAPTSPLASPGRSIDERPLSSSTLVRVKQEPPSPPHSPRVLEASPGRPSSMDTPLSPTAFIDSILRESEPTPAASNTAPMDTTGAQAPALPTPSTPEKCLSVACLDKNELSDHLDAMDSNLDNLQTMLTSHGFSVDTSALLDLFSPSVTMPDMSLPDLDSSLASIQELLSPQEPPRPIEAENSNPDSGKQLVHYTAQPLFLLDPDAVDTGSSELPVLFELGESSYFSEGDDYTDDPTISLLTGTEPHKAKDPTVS

[2] = HEp-2 cell cytotoxicity, dose response, cytotoxicity control for RSV inhibitor project, HTS (AID 2410); type: functional; conditions: human respiratory syncytial virus
[3] = system: Vero; test: cells; type: functional; conditions: Chlorocebus sabaeus
[4] = Luminescence Cell-Based Dose Retest to Confirm Inhibitors of Cancer Stem Cells. [Related pubchem assays (depositor defined):AID2717, AID2721]; type: functional, Homo sapiens; conditions: Homo sapiens
[5] = molecular target: T2, Cytochrome P450 1A2 (Homo sapiens, UniProt P05177);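 note: PubChem cytochrome P450 panel assay, CYP1A2 panel member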
T2 sequence (P05177 whole entry): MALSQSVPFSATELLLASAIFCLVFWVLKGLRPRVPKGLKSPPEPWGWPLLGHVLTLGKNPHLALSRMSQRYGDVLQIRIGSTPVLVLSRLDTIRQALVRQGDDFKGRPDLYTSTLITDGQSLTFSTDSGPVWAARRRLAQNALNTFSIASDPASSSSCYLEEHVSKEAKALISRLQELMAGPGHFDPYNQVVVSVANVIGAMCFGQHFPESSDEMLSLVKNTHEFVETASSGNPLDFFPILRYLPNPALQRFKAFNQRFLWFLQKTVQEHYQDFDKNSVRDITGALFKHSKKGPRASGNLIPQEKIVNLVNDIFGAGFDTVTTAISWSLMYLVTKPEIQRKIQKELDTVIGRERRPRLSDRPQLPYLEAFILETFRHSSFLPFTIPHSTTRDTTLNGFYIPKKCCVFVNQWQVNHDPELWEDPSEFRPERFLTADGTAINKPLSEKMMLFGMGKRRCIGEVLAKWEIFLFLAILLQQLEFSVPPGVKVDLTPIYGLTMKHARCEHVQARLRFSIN

[6] = molecular target: Cytochrome P450 2C9 (Homo sapiens, UniProt P11712)
[7] = molecular target: Cytochrome P450 2C19 (Homo sapiens, UniProt P33261); test: Cytochrome panel assay with activity outcomes. Panel member name: p450-cyp2c19 Compounds with AC50 equal or less than 10 uM are considered active; type: functional; conditions: read-out: AC50
[8] = molecular target: Cytochrome P450 3A4 (Homo sapiens, UniProt P08684);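 note: CYP3A4 tested as one member of a cytochrome P450 panel screen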
[9] = system: Streptococcus; test: Group A Streptococcus viability loss, dose response, counter-screen for streptokinase expression inhibitor project, luminescence, BacTiterGlo (AID 1915); type: functional, organism-based;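 note: potency for reduction of bacterial viability or growth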
[10] = Luminescence Cell-Based Dose Confirmation HTS to Identify Activators of 5'UTR Stem-Loop Driven Alpha-Synuclein mRNA Translation in H4 Neuroglioblastoma Cells. [Related pubchem assays: 1829 (Project Summary), 1814 (Primary HTS)]; type: functional
[11] = system: Streptococcus sp. 'group A'; test: growth inhibition of control SK(-) GAS strain, dose response, counter-screen for streptokinase expression inhibitor project, luminescence, kanamycin, BacTiterGlo, confirmation (AID 1900); type: functional, organism-based
[12] = molecular target: T3, Streptokinase A (Streptococcus pyogenes serotype M1, UniProt P10520); test: S. pyogenes streptokinase expression inhibitors, potency, dose response, plasminogen activation absorbance, OD405 (AID 1914); type: functional, Streptococcus pyogenes M1 GAS;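 note: secreted streptokinase activity via plasminogen activation per viability signal from cell pellet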
T3 sequence (P10520 whole entry): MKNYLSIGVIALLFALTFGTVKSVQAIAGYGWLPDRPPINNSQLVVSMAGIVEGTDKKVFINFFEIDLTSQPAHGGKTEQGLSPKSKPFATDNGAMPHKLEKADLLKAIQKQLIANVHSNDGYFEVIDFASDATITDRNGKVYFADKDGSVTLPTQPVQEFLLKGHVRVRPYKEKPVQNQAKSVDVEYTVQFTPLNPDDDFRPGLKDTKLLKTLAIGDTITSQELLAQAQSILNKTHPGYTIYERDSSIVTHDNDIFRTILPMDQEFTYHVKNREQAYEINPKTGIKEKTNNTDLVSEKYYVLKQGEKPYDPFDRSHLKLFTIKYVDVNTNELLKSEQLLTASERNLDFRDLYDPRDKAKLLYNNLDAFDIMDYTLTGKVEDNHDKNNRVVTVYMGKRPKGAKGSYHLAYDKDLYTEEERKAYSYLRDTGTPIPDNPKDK

[13] = Luminescence Cell-Based Dose Response HTS to Identify Activators of Luciferase Translation or Activity in H4 […] Cells. [Related pubchem assays: 1829 (Project Summary), 1814 (Primary HTS)]; type: functional
[14] = system: H4; test: Luminescence Cell-Based Dose Response HTS to Identify Activators of 5'UTR Stem-Loop Driven Prion Protein mRNA Translation in H4 Neuroglioblastoma Cells. [Related pubchem assays: 1829 (Project Summary), 1814 (Primary HTS)]; type: functional; conditions: Homo sapiens
[15] = molecular target: Cytochrome P450 2D6 (Homo sapiens, UniProt P10635);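 note: CYP2D6 member of a cytochrome P450 panel assay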
[16] = cytotoxicity toward NIH3T3 fibroblasts, dose response, counter-screen, cell-based, ATP luminescence, mouse fibroblasts (AID 2010); type: functional;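 note: cells exposed to compound for about 90 hours before reading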
[17] = inhibitors of intracellular T. cruzi replication, confirmation, NIH3T3 host cells, beta-gal luminescence (AID 2044); type: functional, cell-based;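 note: intracellular parasites grown in NIH/3T3 mouse fibroblasts as host cells; luminescent beta-galactosidase reporter signal from transgenic T. cruzi replicating inside host cells; inhibitors lower the luminescence signal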
[18] = molecular target: T4, Leucine aminopeptidase (Plasmodium falciparum 3D7, UniProt Q8IL11); test: P. falciparum M17LAP inhibitors, primary screen, biochemical, fluorogenic H-Leu-NHMec substrate, 1536-well (AID 1619); type: functional
T4 sequence (Q8IL11 whole entry): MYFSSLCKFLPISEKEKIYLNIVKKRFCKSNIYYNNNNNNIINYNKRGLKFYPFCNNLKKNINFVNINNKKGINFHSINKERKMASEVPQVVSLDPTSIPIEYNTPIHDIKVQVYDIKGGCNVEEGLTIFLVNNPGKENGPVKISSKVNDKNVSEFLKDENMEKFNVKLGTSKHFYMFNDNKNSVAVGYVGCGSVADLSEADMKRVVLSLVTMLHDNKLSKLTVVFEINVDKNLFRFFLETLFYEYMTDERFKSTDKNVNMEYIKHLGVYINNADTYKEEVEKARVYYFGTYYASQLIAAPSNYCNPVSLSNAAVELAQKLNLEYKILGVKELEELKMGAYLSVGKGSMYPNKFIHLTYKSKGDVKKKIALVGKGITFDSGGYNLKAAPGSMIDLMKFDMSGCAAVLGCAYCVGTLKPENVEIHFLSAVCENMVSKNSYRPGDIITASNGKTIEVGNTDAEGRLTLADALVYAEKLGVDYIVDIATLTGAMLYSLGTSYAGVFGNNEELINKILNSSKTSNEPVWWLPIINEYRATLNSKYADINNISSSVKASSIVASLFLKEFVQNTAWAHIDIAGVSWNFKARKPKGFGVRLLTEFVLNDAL

Cytochrome P450 2D6, sequence (P10635 whole entry): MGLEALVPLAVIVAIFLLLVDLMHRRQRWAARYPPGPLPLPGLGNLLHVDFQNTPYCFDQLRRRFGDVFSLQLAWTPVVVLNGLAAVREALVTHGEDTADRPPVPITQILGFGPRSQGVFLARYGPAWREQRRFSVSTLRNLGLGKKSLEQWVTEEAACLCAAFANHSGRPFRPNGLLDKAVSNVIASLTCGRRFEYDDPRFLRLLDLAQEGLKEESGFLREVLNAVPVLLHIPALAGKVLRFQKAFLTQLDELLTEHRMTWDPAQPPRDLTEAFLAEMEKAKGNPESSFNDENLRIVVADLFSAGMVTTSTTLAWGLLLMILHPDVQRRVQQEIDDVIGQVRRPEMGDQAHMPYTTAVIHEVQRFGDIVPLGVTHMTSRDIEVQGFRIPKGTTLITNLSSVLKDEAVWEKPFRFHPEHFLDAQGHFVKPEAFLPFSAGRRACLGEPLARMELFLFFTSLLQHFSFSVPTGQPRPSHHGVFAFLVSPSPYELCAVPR
Cytochrome P450 2C9, sequence (P11712 whole entry): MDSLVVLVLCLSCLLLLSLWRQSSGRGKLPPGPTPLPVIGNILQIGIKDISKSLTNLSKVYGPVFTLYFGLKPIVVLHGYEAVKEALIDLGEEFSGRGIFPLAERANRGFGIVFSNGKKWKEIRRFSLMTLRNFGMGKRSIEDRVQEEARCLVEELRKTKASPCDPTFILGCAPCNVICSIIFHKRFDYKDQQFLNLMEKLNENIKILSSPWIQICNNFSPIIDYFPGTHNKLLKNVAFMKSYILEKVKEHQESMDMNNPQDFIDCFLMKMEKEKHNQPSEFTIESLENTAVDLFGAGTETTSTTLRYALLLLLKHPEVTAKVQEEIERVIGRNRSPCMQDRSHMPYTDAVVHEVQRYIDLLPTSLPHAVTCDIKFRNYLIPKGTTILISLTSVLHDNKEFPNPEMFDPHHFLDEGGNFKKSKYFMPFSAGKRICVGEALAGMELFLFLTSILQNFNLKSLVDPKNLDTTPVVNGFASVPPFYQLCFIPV
Cytochrome P450 2C19, sequence (P33261 whole entry): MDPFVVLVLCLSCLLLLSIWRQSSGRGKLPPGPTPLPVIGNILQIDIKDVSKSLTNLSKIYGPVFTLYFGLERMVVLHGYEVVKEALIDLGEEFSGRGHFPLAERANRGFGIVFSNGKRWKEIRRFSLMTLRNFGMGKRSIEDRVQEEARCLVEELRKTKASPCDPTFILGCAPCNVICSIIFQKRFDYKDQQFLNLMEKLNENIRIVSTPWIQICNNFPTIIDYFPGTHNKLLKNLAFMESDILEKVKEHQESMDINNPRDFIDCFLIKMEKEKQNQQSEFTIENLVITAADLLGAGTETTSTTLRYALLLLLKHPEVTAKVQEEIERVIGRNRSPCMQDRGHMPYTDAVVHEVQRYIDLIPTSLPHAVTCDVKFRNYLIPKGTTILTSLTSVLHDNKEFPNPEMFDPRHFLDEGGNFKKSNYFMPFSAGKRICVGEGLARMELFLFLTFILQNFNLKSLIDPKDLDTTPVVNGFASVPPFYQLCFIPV
Cytochrome P450 3A4, sequence (P08684 whole entry): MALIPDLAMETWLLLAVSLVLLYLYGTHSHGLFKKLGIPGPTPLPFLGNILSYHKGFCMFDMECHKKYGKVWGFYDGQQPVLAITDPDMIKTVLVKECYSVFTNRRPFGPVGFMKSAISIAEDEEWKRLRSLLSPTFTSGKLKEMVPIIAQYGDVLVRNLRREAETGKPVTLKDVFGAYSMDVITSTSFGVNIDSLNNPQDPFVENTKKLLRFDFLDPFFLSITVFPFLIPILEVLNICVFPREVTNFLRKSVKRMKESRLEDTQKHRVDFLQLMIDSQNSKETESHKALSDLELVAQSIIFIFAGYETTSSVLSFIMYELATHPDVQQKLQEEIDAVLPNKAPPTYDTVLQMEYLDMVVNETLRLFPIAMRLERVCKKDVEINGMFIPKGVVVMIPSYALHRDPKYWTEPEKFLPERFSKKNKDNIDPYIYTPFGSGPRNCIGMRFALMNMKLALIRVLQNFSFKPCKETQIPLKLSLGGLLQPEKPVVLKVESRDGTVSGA

SMILES: COc1ccc(C(=O)/C=C/c2ccc(OC)c(Cn3nnc4ccccc43)c2)cc1
- EC50 [1]: 14.1 µM (active)
- CC50 [2]: 12.1 µM (active)
- CC50 [3]: 15.2 µM (active)
- AC50 [4]: 6.14 µM (active)

SMILES: COc1ccc(C(=O)N/N=C2/C(=O)c3c(C)cc(C)cc3CC2(C)C)cc1
- AC50 [5]: 5.01 µM (inconclusive)
- AC50 [6]: 6.31 µM (inconclusive)

SMILES: Cc1cccc(C)c1NC(=O)CSc1nc(C)c(CC(=O)c2ccc(Br)cc2)c(C)c1C#N
- AC50 [7]: 35.5 µM (inconclusive)
- AC50 [6]: 1.12 µM (inconclusive)

SMILES: COC(=O)c1[nH]c2cc(OC)ccc2c1NC(=O)c1nonc1C
- AC50 [8]: 7.08 µM (inconclusive)
- AC50 [5]: 0.794 µM (inconclusive)
- AC50 [6]: 1.26 µM (inconclusive)

SMILES: O=C1N(c2ccccc2C(F)(F)F)O[C@@]1(c1ccccc1)C1CCCC1
- CC50 [3]: 21.6 µM (active)

SMILES: O=C(Nc1nnc(C2CCCCC2)s1)c1ccc(Br)s1
- EC50 [9]: > 150 µM (not active)
- EC50 [10]: 11.6 µM (active)
- EC50 [11]: 6.45 µM (active)
- EC50 [12]: > 150 µM (not active)
- EC50 [13]: 65.3 µM (active)
- EC50 [14]: 81.8 µM (active)

SMILES: CCc1nc(SCC(=O)N2CCCc3ccccc32)c2oc3ccccc3c2n1
- AC50 [6]: 4.47 µM (inconclusive)
- AC50 [15]: 20 µM (inconclusive)

SMILES: Cc1ccc2[nH]c(C3CCCN(C(S)=Nc4ccccc4C)C3)nc2c1 (stereo unspecified)
- EC50 [16]: > 60 µM (not active)
- EC50 [17]: 0.443 µM (active)
- AC50 [7]: 1.41 µM (inconclusive)
- AC50 [6]: 3.16 µM (inconclusive)

SMILES: O=C(NCCN1CCN(Cc2ccccc2)CC1)C1CC(=O)N(C2CCCC2)C1 (stereo unspecified)
- AC50 [6]: 0.398 µM (inconclusive)
- AC50 [15]: 14.1 µM (inconclusive)

SMILES: O=C(COc1ccccc1)NNC(=S)NC(=O)c1ccccc1
- CC50 [3]: > 25 µM (active)
- IC50 [18]: 9.22 µM (active)

SMILES: CCOC(=O)c1cnc(-n2nc(C)cc2C)nc1NCCO
- AC50 [8]: 25.1 µM (inconclusive)
- AC50 [5]: 14.1 µM (inconclusive)
- AC50 [6]: 20 µM (inconclusive)

SMILES: C=C(C(=O)c1ccccc1)C(c1ccccc1)C(C)C(=O)c1ccccc1 (stereo unspecified)
- CC50 [3]: 17.8 µM (active)

SMILES: O=C(CCCn1c(=S)[nH]c2cc3c(cc2c1=O)OCO3)N1CCN(c2ccccc2)CC1
- AC50 [5]: 4.47 µM (inconclusive)
- AC50 [6]: 0.0891 µM (inconclusive)
- AC50 [15]: 1.26 µM (inconclusive)

SMILES: O=C(O)/C=C\c1ccc(O)c(O)c1
- AC50 [6]: 15.8 µM (inconclusive)

Source: ChEMBL document CHEMBL1201862, “PubChem BioAssay data set” (2004)
